Test results published in ChEMBL document CHEMBL3046389, “Synthesis and biological evaluation of novel hydroquinone dimethyl ethers as potential anticancer and antimicrobial agents” (2013).
Values after ≈ are worked out from the molar mass of the structure shown.

What was measured:
Assay type in all cases: functional
[1] = system: NCI-H23; assay: Anticancer activity against Homo sapiens (human) NCI-H23 cells after 48 hr by SRB assay; conditions: NCI-H23, 48 h; for CC50: read-out: LC50 (the source's name)
[2] = system: SF-295; assay: Growth inhibition of Homo sapiens (human) SF295 cells at 10 uM after 48 hr by SRB assay; conditions: SF-295, 48 h, read-out: GI
[3] = system: OVCAR-3; assay: Growth inhibition of Homo sapiens (human) OVCAR3 cells at 10 uM after 48 hr by SRB assay; conditions: OVCAR-3, 48 h, read-out: GI
[4] = system: NCI-H522; assay: Anticancer activity against Homo sapiens (human) NCI-H522 cells after 48 hr by SRB assay; conditions: NCI-H522, 48 h; for CC50: read-out: LC50 (the source's name)
[5] = system: Hs-578T; assay: Anticancer activity against Homo sapiens (human) Hs 578T cells after 48 hr by SRB assay; conditions: for CC50: read-out: LC50 (the source's name)
[6] = system: MDA-MB-468; assay: Anticancer activity against Homo sapiens (human) MDA-MB-468 cells after 48 hr by SRB assay; conditions: MDA-MB-468, 48 h; for CC50: read-out: LC50 (the source's name)
[7] = system: HL-60(TB); assay: Anticancer activity against Homo sapiens (human) HL-60(TB) cells after 48 hr by SRB assay; conditions: HL-60, 48 h; for CC50: read-out: LC50 (the source's name)
[8] = system: Escherichia coli; assay: Antimicrobial activity against Escherichia coli ATCC 11775 after 48 hr by two-fold serial broth dilution method; conditions: ATCC 11775, 48 h
[9] = system: SNB-19; assay: Anticancer activity against Homo sapiens (human) SNB19 cells after 48 hr by SRB assay; conditions: SNB-19, 48 h; for CC50: read-out: LC50 (the source's name)
[10] = system: HT-29; assay: Anticancer activity against Homo sapiens (human) HT-29 cells after 48 hr by SRB assay; conditions: HT-29, 48 h; for CC50: read-out: LC50 (the source's name)
[11] = system: MDA-MB-468; assay: Growth inhibition of Homo sapiens (human) MDA-MB-468 cells at 10 uM after 48 hr by SRB assay; conditions: MDA-MB-468, 48 h, read-out: GI
[12] = system: SK-MEL-5; assay: Anticancer activity against Homo sapiens (human) SK-MEL-5 cells after 48 hr by SRB assay; conditions: SK-MEL-5, 48 h
[13] = system: ACHN; assay: Growth inhibition of Homo sapiens (human) ACHN cells at 10 uM after 48 hr by SRB assay; conditions: read-out: GI
[14] = system: A549; assay: Anticancer activity against Homo sapiens (human) A549/ATCC cells after 48 hr by SRB assay; conditions: A549, 48 h; for CC50: read-out: LC50 (the source's name)
[15] = system: SN12C; assay: Anticancer activity against Homo sapiens (human) SN12C cells after 48 hr by SRB assay
[16] = system: 786-0; assay: Anticancer activity against Homo sapiens (human) 786-0 cells after 48 hr by SRB assay; conditions: 786-0, 48 h; for CC50: read-out: LC50 (the source's name)
[17] = system: LOX IMVI; assay: Growth inhibition of Homo sapiens (human) LOXIMVI cells at 10 uM after 48 hr by SRB assay; conditions: read-out: GI
[18] = system: OVCAR-4; assay: Anticancer activity against Homo sapiens (human) OVCAR4 cells after 48 hr by SRB assay; conditions: OVCAR-4, 48 h; for CC50: read-out: LC50 (the source's name)
[19] = system: UO-31; assay: Anticancer activity against Homo sapiens (human) UO31 cells after 48 hr by SRB assay; conditions: UO-31, 48 h
[20] = system: PC-3; assay: Anticancer activity against Homo sapiens (human) PC3 cells after 48 hr by SRB assay; conditions: PC-3, 48 h; for CC50: read-out: LC50 (the source's name)
[21] = system: HCC 2998; assay: Anticancer activity against Homo sapiens (human) HCC2998 cells after 48 hr by SRB assay; conditions: HCC 2998, 48 h; for CC50: read-out: LC50 (the source's name)
[22] = system: NCI-H460; assay: Anticancer activity against Homo sapiens (human) NCI-H460 cells after 48 hr by SRB assay; conditions: NCI-H460, 48 h; for CC50: read-out: LC50 (the source's name)
[23] = system: MCF7; assay: Anticancer activity against Homo sapiens (human) MCF7 cells after 48 hr by SRB assay; conditions: MCF7, 48 h; for CC50: read-out: LC50 (the source's name)
[24] = system: HCT-116; assay: Growth inhibition of Homo sapiens (human) HCT116 cells at 10 uM after 48 hr by SRB assay; conditions: HCT-116, 48 h, read-out: GI
[25] = system: TK-10; assay: Growth inhibition of Homo sapiens (human) TK10 cells at 10 uM after 48 hr by SRB assay; conditions: TK-10, 48 h, read-out: GI
[26] = system: MDA-MB-435; assay: Anticancer activity against Homo sapiens (human) MDA-MB-435 cells after 48 hr by SRB assay; conditions: MDA-MB-435, 48 h; for CC50: read-out: LC50 (the source's name)
[27] = system: MDA-MB-435; assay: Growth inhibition of Homo sapiens (human) MDA-MB-435 cells at 10 uM after 48 hr by SRB assay; conditions: MDA-MB-435, 48 h, read-out: GI
[28] = system: PC-3; assay: Growth inhibition of Homo sapiens (human) PC3 cells at 10 uM after 48 hr by SRB assay; conditions: PC-3, 48 h, read-out: GI
[29] = system: MCF7; assay: Growth inhibition of Homo sapiens (human) MCF7 cells at 10 uM after 48 hr by SRB assay; conditions: MCF7, 48 h, read-out: GI
[30] = system: UACC-62; assay: Growth inhibition of Homo sapiens (human) UACC62 cells at 10 uM after 48 hr by SRB assay; conditions: UACC-62, 48 h, read-out: GI
[31] = system: M14; assay: Growth inhibition of Homo sapiens (human) M14 cells at 10 uM after 48 hr by SRB assay; conditions: M14, 48 h, read-out: GI
[32] = system: IGROV-1; assay: Growth inhibition of Homo sapiens (human) IGROV1 cells at 10 uM after 48 hr by SRB assay; conditions: IGROV-1, 48 h, read-out: GI
[33] = system: K562; assay: Growth inhibition of Homo sapiens (human) K562 cells at 10 uM after 48 hr by SRB assay; conditions: K562, 48 h, read-out: GI

Structure (SMILES): COc1ccc(OC)c(/C=C/c2nnc(Nc3ccc(Cl)cc3)o2)c1
- GI50 [1]: 21.7 µM
- TGI [1]: > 100 µM
- CC50 [1]: > 100 µM
- inhibition of growth at 10 µM [2]: 53.1%
- inhibition of growth at 10 µM [3]: 67.9%
- GI50 [4]: 7.13 µM
- TGI [4]: 83.7 µM
- CC50 [4]: > 100 µM
- GI50 [5]: 2710 nM
- TGI [5]: 8.01 µM
- CC50 [5]: > 100 µM
- GI50 [6]: 16.4 µM
- TGI [6]: > 100 µM
- CC50 [6]: > 100 µM
- GI50 [7]: > 100 µM
- TGI [7]: > 100 µM
- CC50 [7]: > 100 µM
- MBC [8]: 50 µg/mL (≈ 140 µM)
- MIC [8]: 50 µg/mL (≈ 140 µM)
- GI50 [9]: 13.8 µM
- TGI [9]: > 100 µM
- CC50 [9]: > 100 µM
- GI50 [10]: 9.44 µM
- TGI [10]: 28.3 µM
- CC50 [10]: 82.1 µM
- inhibition of growth at 10 µM [11]: 34%
- GI50 [12]: 7.17 µM
- LC50 [12]: > 100 µM
- TGI [12]: > 100 µM
- inhibition of growth at 10 µM [13]: 67.4%
- GI50 [14]: 3.67 µM
- TGI [14]: 17.8 µM
- CC50 [14]: 78.6 µM
- GI50 [15]: 4.21 µM
- LC50 [15]: > 100 µM
- TGI [15]: > 100 µM
- GI50 [16]: 2.67 µM
- TGI [16]: 7.6 µM
- CC50 [16]: 55.3 µM
- inhibition of growth at 10 µM [17]: 32.3%
- GI50 [18]: 2.44 µM
- TGI [18]: 6.76 µM
- CC50 [18]: > 100 µM
- GI50 [19]: 3130 nM
- LC50 (50% lethal concentration) [19]: 78 µM
- TGI [19]: 12.6 µM
- GI50 [20]: 13.3 µM
- TGI [20]: 76 µM
- CC50 [20]: > 100 µM
- GI50 [21]: > 100 µM
- TGI [21]: > 100 µM
- CC50 [21]: > 100 µM
- GI50 [22]: 3.77 µM
- TGI [22]: > 100 µM
- CC50 [22]: > 100 µM
- GI50 [23]: 20.7 µM
- TGI [23]: > 100 µM
- CC50 [23]: > 100 µM
- inhibition of growth at 10 µM [24]: 78.1%
- inhibition of growth at 10 µM [25]: 60.9%
- GI50 [26]: 37 µM
- TGI [26]: > 100 µM
- CC50 [26]: > 100 µM

Structure (SMILES): COc1ccc(OC)c(/C=C/c2nnc(S)n2-c2ccc(Cl)cc2)c1
- GI50 [1]: 5.88 µM
- TGI [1]: > 100 µM
- CC50 [1]: > 100 µM
- inhibition of growth at 10 µM [2]: 68.8%
- inhibition of growth at 10 µM [3]: 70.6%
- GI50 [4]: 4.07 µM
- TGI [4]: > 100 µM
- CC50 [4]: > 100 µM
- GI50 [5]: 3100 nM
- TGI [5]: > 100 µM
- CC50 [5]: > 100 µM
- GI50 [6]: 3.51 µM
- TGI [6]: 55.4 µM
- CC50 [6]: > 100 µM
- GI50 [7]: 3.57 µM
- TGI [7]: > 100 µM
- CC50 [7]: > 100 µM
- inhibition of growth at 10 µM [27]: 110%
- MBC [8]: 50 µg/mL (≈ 134 µM)
- MIC [8]: 50 µg/mL (≈ 134 µM)
- GI50 [9]: 12.7 µM
- TGI [9]: > 100 µM
- CC50 [9]: > 100 µM
- inhibition of growth at 10 µM [28]: 41.4%
- GI50 [10]: 3.67 µM
- TGI [10]: > 100 µM
- CC50 [10]: > 100 µM
- inhibition of growth at 10 µM [11]: 61.2%
- GI50 [12]: 3.58 µM
- LC50 [12]: > 100 µM
- TGI [12]: > 100 µM
- GI50 [14]: 9.07 µM
- TGI [14]: > 100 µM
- CC50 [14]: > 100 µM
- GI50 [15]: 6.07 µM
- LC50 [15]: > 100 µM
- TGI [15]: > 100 µM
- GI50 [16]: 7.17 µM
- TGI [16]: > 100 µM
- CC50 [16]: > 100 µM
- inhibition of growth at 10 µM [29]: 68%
- inhibition of growth at 10 µM [30]: 57.2%
- GI50 [18]: 20.6 µM
- TGI [18]: > 100 µM
- CC50 [18]: > 100 µM
- GI50 [19]: 2250 nM
- LC50 (50% lethal concentration) [19]: > 100 µM
- GI50 [20]: 8.91 µM
- TGI [20]: > 100 µM
- CC50 [20]: > 100 µM
- inhibition of growth at 10 µM [31]: 69%
- GI50 [21]: 13.3 µM
- TGI [21]: > 100 µM
- CC50 [21]: > 100 µM
- inhibition of growth at 10 µM [32]: 59.9%
- GI50 [22]: 4.53 µM
- TGI [22]: > 100 µM
- CC50 [22]: > 100 µM
- GI50 [23]: 4.44 µM
- TGI [23]: > 100 µM
- CC50 [23]: > 100 µM
- inhibition of growth at 10 µM [33]: 77.6%
- inhibition of growth at 10 µM [24]: 70.4%
- GI50 [26]: 2.83 µM
- TGI [26]: > 100 µM
- CC50 [26]: > 100 µM
